One assay has as its system TNFα. Nature of the assay: Cot Monocyte TNFα Cell Based Assay. As to conditions: Homo sapiens, Monocyte, read-out: EC50 TNF, LPS-stimulated human monocytes, TNFα.
In another assay the target is Human Cot (Homo sapiens (Human), UniProt P41279). Nature of the assay: High Throughput Cot Biochemical Assay. As to conditions: IC50 HTRF, Cot HTRF (TR-FRET) biochemical assay.

A value given as a limit tells only on which side of the number the result lay.

Human Cot, sequence (P41279 30-397): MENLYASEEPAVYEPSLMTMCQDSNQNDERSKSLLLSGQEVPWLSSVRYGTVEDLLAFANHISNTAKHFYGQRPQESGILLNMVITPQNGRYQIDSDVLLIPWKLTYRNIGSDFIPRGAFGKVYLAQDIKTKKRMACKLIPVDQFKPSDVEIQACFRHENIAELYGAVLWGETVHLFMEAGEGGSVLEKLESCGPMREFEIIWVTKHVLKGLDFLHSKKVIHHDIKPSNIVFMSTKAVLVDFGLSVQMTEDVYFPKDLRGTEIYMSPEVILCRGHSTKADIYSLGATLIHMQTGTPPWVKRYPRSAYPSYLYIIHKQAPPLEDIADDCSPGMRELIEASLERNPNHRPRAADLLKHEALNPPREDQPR

Turning to `[2H]C(Nc1cc(Cl)c2ncc(C#N)c(N[C@@H](CCC#N)c3ccccc3)c2c1)(c1ccc(F)nc1)c1cn(C2CC2)nn1` (stereo partly drawn) [Example 88, 8-chloro-4-(((S)-3-cyano-1-phenylpropyl)amino)-6-(((1-cyclopropyl-1H-1,2,3-triazol-4-yl)(6-fluoropyridin-3-yl)methyl-d)amino)quinoline-3-carbonitrile], in the assay with TNFα, the EC50 was more than 1000 nM. Moreover, at Human Cot, the IC50 was 1160 nM.
As for `[2H]C(Nc1cc(Cl)c2ncc(C#N)c(N[C@H](CCC#N)c3ccccc3)c2c1)(c1ccc(F)nc1)c1cn(C2CC2)nn1` (stereo partly drawn) [Example 89, 8-chloro-4-(((R)-3-cyano-1-phenylpropyl)amino)-6-(((1-cyclopropyl-1H-1,2,3-triazol-4-yl)(6-fluoropyridin-3-yl)methyl-d)amino)quinoline-3-carbonitrile], the EC50 in the assay with TNFα is more than 1000 nM. On Human Cot, this compound returned an IC50 of 520 nM.
Regarding `N#CCCC(Nc1c(C#N)cnc2c(Cl)cc(N[C@H](c3cn(C4CC4)nn3)c3csc4c3CCN(C3COC3)C4)cc12)c1ccccc1` (stereo partly drawn) [Example 90, 8-chloro-4-((3-cyano-1-phenyl-propyl)amino)-6-(((S)-(1-cyclopropyl-1H-1,2,3-triazol-4-yl)(6-(oxetan-3-yl)-4,5,6,7-tetrahydrothieno[2,3-c]pyridin-3-yl)methyl)amino)quinoline-3-carbonitrile], the EC50 in the assay on TNFα came to 18 nM. The compound further gave an IC50 at Human Cot of 1 nM.
The like results for `CC(C)(C)CNc1c(C#N)cnc2c(Cl)cc(NC(c3cn(C4CC4)nn3)c3csc4c3CCN(C3COC3)C4)cc12` (stereo not shown) [Example 91, 8-chloro-6-(((1-cyclopropyl-1H-1,2,3-triazol-4-yl)(6-(oxetan-3-yl)-4,5,6,7-tetrahydro-thieno[2,3-c]pyridin-3-yl)-methyl)amino)-4-(neopentylamino)-quinoline-3-carbonitrile] were, in that order, 52 nM and 2 nM.
The matching figures for `[2H][C@](Nc1cc(Cl)c2ncc(C#N)c(NC3CCOCC3(C)C)c2c1)(c1ccc(F)nc1)c1cn(C2CC2)nn1` (stereo partly drawn) [Example 92, 8-chloro-6-(((S)-(1-cyclopropyl-1H-1,2,3-triazol-4-yl)(6-fluoropyridin-3-yl)methyl-d)amino)-4-((3,3-dimethyltetrahydro-2H-pyran-4-yl)amino)quinoline-3-carbonitrile]: 65 nM and 6 nM.
Turning to `[2H]C(Nc1cc(Cl)c2ncc(C#N)c(NC(CCC#N)c3ccccc3)c2c1)(c1ccc(F)nc1)c1cn(C2CC2)nn1` (stereo not shown) [Example 93, 8-chloro-4-((3-cyano-1-phenylpropyl)amino)-6-(((1-cyclopropyl-1H-1,2,3-triazol-4-yl)(6-fluoropyridin-3-yl)methyl-d)amino)quinoline-3-carbonitrile], the EC50 in the assay on TNFα stood at 74 nM. The same compound returned an IC50 on Human Cot of 7 nM.
Regarding `[2H][C@](Nc1cc(Cl)c2ncc(C#N)c(Nc3cccc(Cl)c3OC)c2c1)(c1ccc(F)nc1)c1cn(C2CC2)nn1` [Example 94, (S)-8-chloro-4-((3-chloro-2-methoxyphenyl)amino)-6-(((1-cyclopropyl-1H-1,2,3-triazol-4-yl)(6-fluoropyridin-3-yl)methyl-d)amino)quinoline-3-carbonitrile], in the assay with TNFα, the EC50 was found to be 130 nM. Inhibition on Human Cot was half-maximal at 2 nM (IC50).
The like results for `[2H][C@](Nc1cc(Cl)c2ncc(C#N)c(Nc3ccc(OC)c(Cl)c3)c2c1)(c1ccc(F)nc1)c1cn(C2CC2)nn1` [Example 96, (S)-8-chloro-4-((3-chloro-4-methoxyphenyl)amino)-6-(((1-cyclopropyl-1H-1,2,3-triazol-4-yl)(6-fluoropyridin-3-yl)methyl-d)amino)quinoline-3-carbonitrile] were, in that order, 173 nM and 11 nM.
With `[2H][C@](Nc1cc(OC)c2ncc(C#N)c(N[C@H](CC)c3ccccc3)c2c1)(c1ccc(F)nc1)c1cn(C2CC2)nn1` [Example 97, 6-(((S)-(1-cyclopropyl-1H-1,2,3-triazol-4-yl)(6-fluoropyridin-3-yl)methyl-d)amino)-8-methoxy-4-(((R)-1-phenylpropyl)amino)-quinoline-3-carbonitrile], the EC50 with TNFα was determined as 358 nM. On Human Cot, this compound came in with a concentration for half-maximal inhibition (IC50) of 20 nM.
Regarding `[2H][C@](Nc1cc(OC)c2ncc(C#N)c(NCC(C)(C)C)c2c1)(c1ccc(F)nc1)c1cn(C2CC2)nn1` [Example 98, (S)-6-(((1-cyclopropyl-1H-1,2,3-triazol-4-yl)(6-fluoropyridin-3-yl)methyl-d)amino)-8-methoxy-4-(neopentylamino)quinoline-3-carbonitrile], the EC50 with TNFα is 821 nM. This compound registered an IC50 against Human Cot of 49 nM.
The matching figures for `[2H][C@](Nc1cc(C#N)c2ncc(C#N)c(NCC(C)(C)C)c2c1)(c1ccc(F)nc1)c1cn(C)nn1` [Example 99, (S)-6-(((6-fluoropyridin-3-yl)(1-methyl-1H-1,2,3-triazol-4-yl)methyl-d)amino)-4-(neopentylamino)quinoline-3,8-dicarbonitrile]: 143 nM and 3 nM.
With `[2H][C@](Nc1cc(C#N)c2ncc(C#N)c(N[C@H](CC#N)c3ccccc3)c2c1)(c1ccc(F)nc1)c1cn(C2CC2)nn1` [Example 100, 4-(((R)-2-cyano-1-phenylethyl)amino)-6-(((S)-(1-cyclopropyl-1H-1,2,3-triazol-4-yl)(6-fluoropyridin-3-yl)methyl-d)amino)quinoline-3,8-dicarbonitrile], in the assay on TNFα, the EC50 was 142 nM. Besides, inhibition against Human Cot was half-maximal at 3 nM (IC50).
The matching figures for `[2H]C(Nc1cc(Cl)c2ncc(C#N)c(N[C@H](CC)c3ccccc3)c2c1)(c1cn(C2CC2)nn1)c1scnc1C` (stereo partly drawn) [Example 101, 8-chloro-6-(((1-cyclopropyl-1H-1,2,3-triazol-4-yl)(4-methylthiazol-5-yl)methyl-d)amino)-4-(((R)-1-phenylpropyl)amino)quinoline-3-carbonitrile]: 348 nM and 5 nM.
Consider `[2H]C(Nc1cc(Cl)c2ncc(C#N)c(NCC(C)(C)C)c2c1)(c1cn(C2CC2)nn1)c1scnc1C` (stereo not shown) [Example 102, 8-chloro-6-(((1-cyclopropyl-1H-1,2,3-triazol-4-yl)(4-methylthiazol-5-yl)methyl-d)amino)-4-(neopentyl-amino)quinoline-3-carbonitrile], for which the EC50 in the assay with TNFα stood at 461 nM. At Human Cot, this compound displayed an IC50 of 3 nM.
For the compound `[2H]C(Nc1cc(Cl)c2ncc(C#N)c(NCC(C)(C)C)c2c1)(c1cn(C2CC2)nn1)c1ccc(F)nc1F` (stereo not shown) [Example 103, 8-chloro-6-(((1-cyclopropyl-1H-1,2,3-triazol-4-yl)(2,6-difluoropyridin-3-yl)methyl-d)amino)-4-(neopentylamino)quinoline-3-carbonitrile], the EC50 in the assay with TNFα amounted to 133 nM. The compound further had an IC50 against Human Cot of 3 nM.
The matching figures for `[2H][C@@](Nc1cc(Cl)c2ncc(C#N)c(NCC(C)(C)C)c2c1)(c1cn(C2CC2)nn1)c1cccnc1F` [Example 104, (S)-8-chloro-6-(((1-cyclopropyl-1H-1,2,3-triazol-4-yl)(2-fluoropyridin-3-yl)methyl-d)amino)-4-(neopentyl-amino)quinoline-3-carbonitrile]: 99 nM and 1 nM.
As to `[2H][C@@](Nc1cc(Cl)c2ncc(C#N)c(N[C@H](CC)c3ccccc3)c2c1)(c1cn(C2CC2)nn1)c1cccnc1F` [Example 105, 8-chloro-6-(((S)-(1-cyclopropyl-1H-1,2,3-triazol-4-yl)(2-fluoropyridin-3-yl)methyl-d)amino)-4-(((R)-1-phenylpropyl)amino)quinoline-3-carbonitrile], in the assay with TNFα, the EC50 came out at 144 nM. The IC50 on Human Cot stood at 3 nM.

The values above are taken from patent publication US11066414B2, “Cot modulators and methods of use thereof” (Gilead Sciences, Inc., priority 2015, dated 2021).
